According to the supplement of paper PMC4862054:

Experiments:
Conditions in all cases: 72 h
HDQ-P1 [1] = test system: HDQ-P1
Procedure: (§1)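 Drug sensitivity and resistance testing (DSRT) of breast cancer cell lines in 384-well plates, 5 concentrations in 10-fold dilutions over a compound-specific 10,000-fold range. After 72 h, cytotoxicity was read by CellTox Green fluorescence and viability by CellTiter-Glo luminescence (multiplexed), normalised to DMSO and benzethonium chloride controls. EC50 is the inflection point of the fitted dose-response curve (bottom asymptote free, so it can be relative for partial curves) and is censored at the highest tested concentration. Rows with DSS 0 (no meaningful response) were excluded.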

HCC1937 [2] = test system: HCC1937
Procedure: as §1

HCC1599 [3] = test system: HCC1599
Procedure: as §1

BT-474 [4] = test system: BT-474
Procedure: as §1

MDA-MB-436 [5] = test system: MDA-MB-436
Procedure: as §1

MFM-223 [6] = test system: MFM-223
Procedure: as §1

MCF-10A [7] = test system: MCF-10A
Procedure: as §1

MDA-MB-468 [8] = test system: MDA-MB-468
Procedure: as §1

Hs578T [9] = test system: Hs578T
Procedure: as §1

CAL-51 [10] = test system: CAL-51
Procedure: as §1

CAL-85-1 [11] = test system: CAL-85-1
Procedure: as §1

HDQ-P1 [12] = test system: HDQ-P1; remark: listed apart in the source
Procedure, shortened: (§2)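 A 20 µl suspension of breast cancer cells was placed in 384-well plates that already contained compound at 5 concentrations in 10-fold steps across a compound-specific 10,000-fold range, and the plates were left for 72 h. CellTox Green fluorescence at 485/520 nm gave cell death, and CellTiter-Glo luminescence, read after 10 min at room temperature, gave viability. Each plate was normalised to 0.1 % DMSO and a positive kill control. EC50 was fitted from the curves and censored at the top concentration.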

HCC1937 [13] = test system: HCC1937; remark: listed apart in the source
Procedure, shortened: as §2

HCC1143 [14] = test system: HCC1143
Procedure, shortened: as §2

MDA-MB-231 [15] = test system: MDA-MB-231
Procedure, shortened: as §2

HCC1599 [16] = test system: HCC1599; remark: listed apart in the source
Procedure, shortened: as §2

BT-474 [17] = test system: BT-474; remark: listed apart in the source
Procedure, shortened: as §2

MDA-MB-436 [18] = test system: MDA-MB-436; remark: listed apart in the source
Procedure, shortened: as §2

MDA-MB-453 [19] = test system: MDA-MB-453
Procedure, shortened: as §2

MFM-223 [20] = test system: MFM-223; remark: listed apart in the source
Procedure, shortened: as §2

DU-4475 [21] = test system: DU-4475
Procedure, shortened: as §2

CAL-148 [22] = test system: CAL-148
Procedure, shortened: as §2

MCF-10A [23] = test system: MCF-10A; remark: listed apart in the source
Procedure, shortened: as §2

MDA-MB-468 [24] = test system: MDA-MB-468; remark: listed apart in the source
Procedure, shortened: as §2

SK-BR-3 [25] = test system: SK-BR-3
Procedure, shortened: as §2

CAL-120 [26] = test system: CAL-120
Procedure, shortened: as §2

Hs578T [27] = test system: Hs578T; remark: listed apart in the source
Procedure, shortened: as §2

BT-549 [28] = test system: BT-549
Procedure, shortened: as §2

CAL-51 [29] = test system: CAL-51; remark: listed apart in the source
Procedure, shortened: as §2

CAL-85-1 [30] = test system: CAL-85-1; remark: listed apart in the source
Procedure, shortened: as §2

HDQ-P1 [31] = test system: HDQ-P1; remark: listed apart in the source
Procedure, shortened: (§3)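 For viability, cells received 2.5 µl CellTiter-Blue for 2 h at 37 °C and fluorescence was read at 560/590 nm. Before this, breast cancer cell lines in 20 µl suspension had been incubated for 72 h on 384-well plates pre-loaded with compound dissolved in 5 µl medium. EC50 was obtained from a percent-inhibition dose-response fit censored at the highest concentration, after normalisation of each plate to vehicle and a positive kill control; rows with a zero drug sensitivity score were discarded.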

MDA-MB-453 [32] = test system: MDA-MB-453; remark: listed apart in the source
Procedure, shortened: as §3

DU-4475 [33] = test system: DU-4475; remark: listed apart in the source
Procedure, shortened: as §3

CAL-148 [34] = test system: CAL-148; remark: listed apart in the source
Procedure, shortened: as §3

CAL-51 [35] = test system: CAL-51; remark: listed apart in the source
Procedure, shortened: as §3

CAL-85-1 [36] = test system: CAL-85-1; remark: listed apart in the source
Procedure, shortened: as §3

HCC1937 [37] = test system: HCC1937; remark: listed apart in the source
Procedure, shortened: as §3

HCC1143 [38] = test system: HCC1143; remark: listed apart in the source
Procedure, shortened: as §3

MDA-MB-231 [39] = test system: MDA-MB-231; remark: listed apart in the source
Procedure, shortened: as §3

HCC1599 [40] = test system: HCC1599; remark: listed apart in the source
Procedure, shortened: as §3

BT-474 [41] = test system: BT-474; remark: listed apart in the source
Procedure, shortened: as §3

MDA-MB-436 [42] = test system: MDA-MB-436; remark: listed apart in the source
Procedure, shortened: as §3

MFM-223 [43] = test system: MFM-223; remark: listed apart in the source
Procedure, shortened: as §3

MDA-MB-468 [44] = test system: MDA-MB-468; remark: listed apart in the source
Procedure, shortened: as §3

SK-BR-3 [45] = test system: SK-BR-3; remark: listed apart in the source
Procedure, shortened: as §3

CAL-120 [46] = test system: CAL-120; remark: listed apart in the source
Procedure, shortened: as §3

Hs578T [47] = test system: Hs578T; remark: listed apart in the source
Procedure, shortened: as §3

BT-549 [48] = test system: BT-549; remark: listed apart in the source
Procedure, shortened: as §3

MDA-MB-231 [49] = test system: MDA-MB-231; remark: listed apart in the source
Procedure: as §1

CAL-120 [50] = test system: CAL-120; remark: listed apart in the source
Procedure: as §1

BT-549 [51] = test system: BT-549; remark: listed apart in the source
Procedure: as §1

O=C(Cc1ccc(-c2ccc(OCCN3CCOCC3)cc2)cn1)NCc1ccccc1 [KX2-391]
EC50, CellTox Green (HDQ-P1 [1]): 4110 nM | EC50, CellTox Green (HCC1937 [2]): 5000 nM | EC50, CellTox Green (HCC1599 [3]): 267 nM | EC50, CellTox Green (BT-474 [4]): 307 nM | EC50, CellTox Green (MDA-MB-436 [5]): > 10000 nM | EC50, CellTox Green (MFM-223 [6]): 328 nM | EC50, CellTox Green (MCF-10A [7]): 59.8 nM | EC50, CellTox Green (MDA-MB-468 [8]): 19.4 nM | EC50, CellTox Green (Hs578T [9]): 523 nM | EC50, CellTox Green (CAL-51 [10]): 23.8 nM | EC50, CellTox Green (CAL-85-1 [11]): 22.1 nM | EC50, CellTiter-Glo (HDQ-P1 [12]): 26.5 nM | EC50, CellTiter-Glo (HCC1937 [13]): 34.5 nM | EC50, CellTiter-Glo (HCC1143 [14]): 28.2 nM | EC50, CellTiter-Glo (MDA-MB-231 [15]): 75.9 nM | EC50, CellTiter-Glo (HCC1599 [16]): 61.9 nM | EC50, CellTiter-Glo (BT-474 [17]): 70 nM | EC50, CellTiter-Glo (MDA-MB-436 [18]): 51.4 nM | EC50, CellTiter-Glo (MDA-MB-453 [19]): 55.6 nM | EC50, CellTiter-Glo (MFM-223 [20]): 83.9 nM | EC50, CellTiter-Glo (DU-4475 [21]): 34.7 nM | EC50, CellTiter-Glo (CAL-148 [22]): 35.8 nM | EC50, CellTiter-Glo (MCF-10A [23]): 29.6 nM | EC50, CellTiter-Glo (MDA-MB-468 [24]): 44.2 nM | EC50, CellTiter-Glo (SK-BR-3 [25]): 20.1 nM | EC50, CellTiter-Glo (CAL-120 [26]): 57.1 nM | EC50, CellTiter-Glo (Hs578T [27]): 49.6 nM | EC50, CellTiter-Glo (BT-549 [28]): 44.7 nM | EC50, CellTiter-Glo (CAL-51 [29]): 16.8 nM | EC50, CellTiter-Glo (CAL-85-1 [30]): 23 nM | EC50, CellTiter-Blue viability (HDQ-P1 [31]): 53.6 nM | EC50, CellTiter-Blue viability (MDA-MB-453 [32]): 35.1 nM | EC50, CellTiter-Blue viability (DU-4475 [33]): 46 nM | EC50, CellTiter-Blue viability (CAL-148 [34]): 47.1 nM | EC50, CellTiter-Blue viability (CAL-51 [35]): 63 nM | EC50, CellTiter-Blue viability (CAL-85-1 [36]): 23.1 nM | EC50, CellTiter-Blue viability (HCC1937 [37]): 47.2 nM | EC50, CellTiter-Blue viability (HCC1143 [38]): 13.6 nM | EC50, CellTiter-Blue viability (MDA-MB-231 [39]): 43.1 nM | EC50, CellTiter-Blue viability (HCC1599 [40]): 212 nM | EC50, CellTiter-Blue viability (BT-474 [41]): 47.9 nM | EC50, CellTiter-Blue viability (MDA-MB-436 [42]): 51.4 nM | EC50, CellTiter-Blue viability (MFM-223 [43]): 57.4 nM | EC50, CellTiter-Blue viability (MDA-MB-468 [44]): 40.3 nM | EC50, CellTiter-Blue viability (SK-BR-3 [45]): 34.8 nM | EC50, CellTiter-Blue viability (CAL-120 [46]): 31.3 nM | EC50, CellTiter-Blue viability (Hs578T [47]): 27.9 nM | EC50, CellTiter-Blue viability (BT-549 [48]): 37.8 nM

C=CC(=O)Nc1cc2c(Nc3ccc(F)c(Cl)c3)ncnc2cc1OCCCN1CCOCC1 [Canertinib]
EC50, CellTox Green (HDQ-P1 [1]): 3470 nM | EC50, CellTox Green (MDA-MB-231 [49]): 4920 nM | EC50, CellTox Green (BT-474 [4]): 9800 nM | EC50, CellTox Green (MFM-223 [6]): 6740 nM | EC50, CellTox Green (MCF-10A [7]): 1690 nM | EC50, CellTox Green (MDA-MB-468 [8]): 3210 nM | EC50, CellTox Green (CAL-120 [50]): 6660 nM | EC50, CellTox Green (Hs578T [9]): 2850 nM | EC50, CellTox Green (BT-549 [51]): 9070 nM | EC50, CellTox Green (CAL-51 [10]): 3010 nM | EC50, CellTox Green (CAL-85-1 [11]): 1620 nM | EC50, CellTiter-Glo (HDQ-P1 [12]): 930 nM | EC50, CellTiter-Glo (HCC1937 [13]): 3340 nM | EC50, CellTiter-Glo (HCC1143 [14]): 4710 nM | EC50, CellTiter-Glo (MDA-MB-231 [15]): 1630 nM | EC50, CellTiter-Glo (HCC1599 [16]): 586 nM | EC50, CellTiter-Glo (BT-474 [17]): 2600 nM | EC50, CellTiter-Glo (MDA-MB-436 [18]): 4370 nM | EC50, CellTiter-Glo (MDA-MB-453 [19]): 3020 nM | EC50, CellTiter-Glo (MFM-223 [20]): 5500 nM | EC50, CellTiter-Glo (DU-4475 [21]): 8210 nM | EC50, CellTiter-Glo (CAL-148 [22]): 1390 nM | EC50, CellTiter-Glo (MCF-10A [23]): 106 nM | EC50, CellTiter-Glo (MDA-MB-468 [24]): 1120 nM | EC50, CellTiter-Glo (SK-BR-3 [25]): 48.8 nM | EC50, CellTiter-Glo (CAL-120 [26]): 5390 nM | EC50, CellTiter-Glo (Hs578T [27]): 5450 nM | EC50, CellTiter-Glo (BT-549 [28]): 2110 nM | EC50, CellTiter-Glo (CAL-51 [29]): 573 nM | EC50, CellTiter-Glo (CAL-85-1 [30]): 595 nM | EC50, CellTiter-Blue viability (HDQ-P1 [31]): 448 nM | EC50, CellTiter-Blue viability (MDA-MB-453 [32]): 243 nM | EC50, CellTiter-Blue viability (DU-4475 [33]): 5980 nM | EC50, CellTiter-Blue viability (CAL-148 [34]): 3370 nM | EC50, CellTiter-Blue viability (CAL-51 [35]): 4690 nM | EC50, CellTiter-Blue viability (CAL-85-1 [36]): 361 nM | EC50, CellTiter-Blue viability (HCC1937 [37]): 2250 nM | EC50, CellTiter-Blue viability (HCC1143 [38]): 4170 nM | EC50, CellTiter-Blue viability (MDA-MB-231 [39]): 1820 nM | EC50, CellTiter-Blue viability (HCC1599 [40]): 9080 nM | EC50, CellTiter-Blue viability (BT-474 [41]): 110 nM | EC50, CellTiter-Blue viability (MDA-MB-436 [42]): 811 nM | EC50, CellTiter-Blue viability (MFM-223 [43]): 3020 nM | EC50, CellTiter-Blue viability (MDA-MB-468 [44]): 571 nM | EC50, CellTiter-Blue viability (SK-BR-3 [45]): 16.6 nM | EC50, CellTiter-Blue viability (CAL-120 [46]): 1720 nM | EC50, CellTiter-Blue viability (Hs578T [47]): 3700 nM | EC50, CellTiter-Blue viability (BT-549 [48]): 2480 nM
